Source: PubChem BioAssay (NCI)
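96-well plates; 48 h exposure; 5 concentrations. Endpoints by linear interpolation between flanking doses. Not reached: highest tested concentration assigned. The concentration for full growth arrest is given as TGI.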

Columns and labels:
Experiment in all cases: NCI-60 cell line screen, 48 h
[1] = system: ACHN renal
[2] = system: HL-60(TB) leukemia
[3] = system: NCI-H460 lung
[4] = system: KM12 colon
[5] = system: HCT-116 colon
[6] = system: SNB-19 CNS
[7] = system: TK-10 renal
[8] = system: SF-295 CNS
[9] = system: SNB-78 CNS
[10] = system: OVCAR-8 ovarian
[11] = system: A549 NSCLC
[12] = system: HT29 colon
[13] = system: M14 melanoma
[14] = system: LXFL 529 NSCLC
[15] = system: U251 CNS
[16] = system: OVCAR-5 ovarian
[17] = system: DLD-1 colon
[18] = system: DMS 273 small cell lung
[19] = system: CAKI-1 renal
[20] = system: LOX IMVI melanoma
[21] = system: EKVX NSCLC
[22] = system: RXF 393 renal
[23] = system: HOP-18 NSCLC
[24] = system: KM20L2 colon
[25] = system: SN12C renal
[26] = system: COLO 205 colon
[27] = system: DMS 114 small cell lung
[28] = system: SF-539 CNS
[29] = system: MALME-3M melanoma
[30] = system: M19-MEL melanoma
[31] = system: XF 498 CNS
[32] = system: UO-31 renal
[33] = system: HCC-2998 colon
[34] = system: NCI-H522 lung
[35] = system: UACC-257 melanoma
[36] = system: HOP-62 NSCLC
[37] = system: OVCAR-4 ovarian
[38] = system: NCI-H23 lung
[39] = system: SK-MEL-2 melanoma
[40] = system: SNB-75 CNS
[41] = system: SW-620 colon
[42] = system: NCI-H226 lung
[43] = system: 786-0 renal
[44] = system: SK-MEL-28 melanoma
[45] = system: HOP-92 NSCLC
[46] = system: SF-268 CNS
[47] = system: SK-OV-3 ovarian
[48] = system: RPMI-8226 leukemia
[49] = system: SK-MEL-5 melanoma
[50] = system: SR leukemia
[51] = system: MOLT-4 leukemia
[52] = system: IGROV1 ovarian
[53] = system: HCT-15 colon
[54] = system: K-562 leukemia
[55] = system: UACC-62 melanoma
[56] = system: OVCAR-3 ovarian
[57] = system: RXF-631 renal
[58] = system: CCRF-CEM leukemia
[59] = system: A498 renal

`C=CC1[C@H]2COC(C)(C)O[C@@H]2CC(=O)C1(C)C` (stereo partly specified) was tested, and the TGI [1] was > 100 µM, the TGI [2] was > 100 µM and the TGI [3] was > 100 µM. For the same compound, the TGI [4] was > 100 µM, the TGI [5] was > 100 µM and the TGI [6] was > 100 µM. For the same compound, the TGI [7] was > 100 µM, the TGI [8] was > 100 µM and the TGI [9] was > 100 µM. For the same compound, the TGI [10] was > 100 µM, the TGI [11] was > 100 µM and the TGI [12] was > 100 µM. For the same compound, the TGI [13] was > 100 µM, the TGI [14] was > 100 µM and the TGI [15] was > 100 µM. The TGI [16] was > 100 µM, the TGI [17] was > 100 µM and the TGI [18] was > 100 µM. The TGI [19] was > 100 µM, the TGI [20] was > 100 µM and the TGI [21] was > 100 µM. For the same compound, the TGI [22] was > 100 µM, the TGI [23] was > 100 µM and the TGI [24] was > 100 µM. For the same compound, the TGI [25] was > 100 µM, the TGI [26] was > 100 µM and the TGI [27] was > 100 µM. For the same compound, the TGI [28] was > 100 µM, the TGI [29] was > 100 µM and the TGI [30] was > 100 µM. For the same compound, the TGI [31] was > 100 µM, the TGI [32] was > 100 µM and the TGI [33] was > 100 µM. For the same compound, the TGI [34] was > 100 µM, the TGI [35] was > 100 µM and the TGI [36] was > 100 µM. The TGI [37] was > 100 µM, the TGI [38] was > 100 µM and the TGI [39] was > 100 µM. The TGI [40] was > 100 µM, the TGI [41] was > 100 µM and the TGI [42] was > 100 µM. The TGI [43] was > 100 µM, the TGI [44] was > 100 µM and the TGI [45] was > 100 µM. The TGI [46] was > 100 µM.
With `CC1(C)C(=O)C(C)(C)C1=NN` the TGI [1] was > 100 µM, the TGI [2] was > 100 µM and the TGI [47] was > 100 µM. The TGI [3] was > 100 µM, the TGI [4] was > 100 µM and the TGI [5] was > 100 µM. The TGI [6] was > 100 µM, the TGI [7] was > 100 µM and the TGI [8] was > 100 µM. For the same compound, the TGI [9] was > 100 µM, the TGI [10] was > 100 µM and the TGI [11] was > 100 µM. For the same compound, the TGI [12] was > 100 µM, the TGI [48] was > 100 µM and the TGI [49] was > 100 µM. The TGI [13] was > 100 µM, the TGI [14] was > 100 µM and the TGI [15] was > 100 µM. For the same compound, the TGI [16] was > 100 µM, the TGI [50] was > 100 µM and the TGI [17] was > 100 µM. The TGI [18] was > 100 µM, the TGI [19] was > 100 µM and the TGI [20] was > 100 µM. For the same compound, the TGI [51] was > 100 µM, the TGI [22] was > 100 µM and the TGI [52] was > 100 µM. The TGI [24] was > 100 µM, the TGI [53] was > 100 µM and the TGI [25] was > 100 µM. The TGI [26] was > 100 µM, the TGI [27] was > 100 µM and the TGI [28] was > 100 µM. For the same compound, the TGI [29] was > 100 µM, the TGI [30] was > 100 µM and the TGI [31] was > 100 µM. The TGI [32] was > 100 µM, the TGI [33] was > 100 µM and the TGI [34] was > 100 µM. The TGI [35] was > 100 µM, the TGI [54] was > 100 µM and the TGI [36] was > 100 µM. For the same compound, the TGI [55] was > 100 µM, the TGI [37] was > 100 µM and the TGI [38] was > 100 µM. The TGI [40] was > 100 µM, the TGI [41] was > 100 µM and the TGI [42] was > 100 µM. For the same compound, the TGI [43] was > 100 µM, the TGI [56] was > 100 µM and the TGI [44] was > 100 µM. For the same compound, the TGI [45] was > 100 µM and the TGI [46] was > 100 µM.
`CCCCC1CC(c2cccc([N+](=O)[O-])c2)=NO1` (stereo unspecified) was tested, and the TGI [1] was > 100 µM, the TGI [2] was > 100 µM and the TGI [47] was > 100 µM. For the same compound, the TGI [3] was > 100 µM, the TGI [4] was > 100 µM and the TGI [5] was > 100 µM. For the same compound, the TGI [6] was > 100 µM, the TGI [7] was > 100 µM and the TGI [8] was > 100 µM. For the same compound, the TGI [9] was > 100 µM, the TGI [10] was > 100 µM and the TGI [11] was > 100 µM. The TGI [12] was > 100 µM, the TGI [48] was > 100 µM and the TGI [49] was > 100 µM. For the same compound, the TGI [57] was > 100 µM, the TGI [13] was > 100 µM and the TGI [14] was > 100 µM. For the same compound, the TGI [15] was > 100 µM, the TGI [58] was > 100 µM and the TGI [16] was > 100 µM. The TGI [50] was > 100 µM, the TGI [17] was > 100 µM and the TGI [18] was > 100 µM. The TGI [19] was > 100 µM, the TGI [21] was > 100 µM and the TGI [51] was > 100 µM. The TGI [52] was > 100 µM, the TGI [23] was > 100 µM and the TGI [24] was > 100 µM. The TGI [53] was > 100 µM, the TGI [25] was > 100 µM and the TGI [26] was > 100 µM. For the same compound, the TGI [27] was > 100 µM, the TGI [28] was > 100 µM and the TGI [29] was > 100 µM. The TGI [30] was > 100 µM, the TGI [32] was > 100 µM and the TGI [33] was > 100 µM. The TGI [34] was > 100 µM, the TGI [35] was > 100 µM and the TGI [54] was > 100 µM. The TGI [36] was > 100 µM, the TGI [59] was > 100 µM and the TGI [55] was > 100 µM. For the same compound, the TGI [37] was > 100 µM, the TGI [38] was > 100 µM and the TGI [39] was > 100 µM. The TGI [40] was > 100 µM, the TGI [41] was > 100 µM and the TGI [42] was > 100 µM. For the same compound, the TGI [43] was > 100 µM, the TGI [56] was > 100 µM and the TGI [44] was > 100 µM. The TGI [45] was > 100 µM and the TGI [46] was > 100 µM.
In the case of `CC(=O)NNc1nc(C)c(C(=O)NNC(=O)C(=O)Nc2c(C)cccc2C)s1`, the TGI [1] is reported as > 100 µM, the TGI [2] is reported as 77.6 µM and the TGI [47] is reported as > 100 µM. For the same compound, the TGI [3] was > 100 µM, the TGI [4] was > 100 µM and the TGI [5] was > 100 µM. The TGI [6] was > 100 µM, the TGI [7] was > 100 µM and the TGI [8] was > 100 µM. For the same compound, the TGI [9] was > 100 µM, the TGI [10] was 80.1 µM and the TGI [11] was > 100 µM. The TGI [12] was > 100 µM, the TGI [48] was > 100 µM and the TGI [49] was > 100 µM. For the same compound, the TGI [57] was > 100 µM, the TGI [13] was > 100 µM and the TGI [14] was > 100 µM. The TGI [15] was > 100 µM, the TGI [58] was 81.7 µM and the TGI [16] was > 100 µM. The TGI [17] was > 100 µM, the TGI [18] was > 100 µM and the TGI [19] was > 100 µM. For the same compound, the TGI [20] was > 100 µM, the TGI [21] was > 100 µM and the TGI [51] was 80.1 µM. For the same compound, the TGI [22] was 88.2 µM, the TGI [52] was > 100 µM and the TGI [23] was > 100 µM. For the same compound, the TGI [24] was > 100 µM, the TGI [53] was > 100 µM and the TGI [25] was > 100 µM. For the same compound, the TGI [26] was > 100 µM, the TGI [28] was > 100 µM and the TGI [29] was > 100 µM. The TGI [30] was 79.7 µM, the TGI [32] was > 100 µM and the TGI [33] was > 100 µM. For the same compound, the TGI [34] was 32.8 µM, the TGI [35] was > 100 µM and the TGI [54] was > 100 µM. The TGI [36] was > 100 µM, the TGI [59] was > 100 µM and the TGI [55] was > 100 µM. For the same compound, the TGI [37] was > 100 µM, the TGI [38] was 60.1 µM and the TGI [39] was > 100 µM. The TGI [40] was > 100 µM, the TGI [41] was > 100 µM and the TGI [42] was > 100 µM. For the same compound, the TGI [43] was > 100 µM, the TGI [56] was 65.3 µM and the TGI [44] was > 100 µM. The TGI [45] was > 100 µM and the TGI [46] was > 100 µM.
